Results as given in ChEMBL document CHEMBL1157915, “Bivalent beta-carbolines as potential multitarget anti-Alzheimer agents” (J Med Chem, 2010).
Several values for one entry are separate records, joined by “and”; a condition that tells them apart may be missing. Identical values can stand only once.

Key:
Acetylcholinesterase = Acetylcholinesterase (Electrophorus electricus, UniProt O42275)
Description: Inhibition of electric eel AChE by modified Ellman's method

[1] = Cytotoxicity against mouse L12-G10 cells by MTT assay; assay type: cell-based
Cholinesterase = Cholinesterase (Equus caballus, UniProt P81908)
Description: Inhibition of equine serum BChE by modified Ellman's method

[2] = Cytotoxicity against mouse L12-G10 cells at 50 uM by MTT assay; assay type: cell-based; settings: l12-g10, 50 µM
[3] = molecular target: Glutamate NMDA receptor; GRIN1/GRIN2B (Homo sapiens, UniProt Q05586+Q13224); assay: Displacement of [3H]ifenprodil from human NR1-1a/NR2B receptor expressed in mouse L13-E6 cells; assay type: cell-based
[4] = molecular target: Glutamate NMDA receptor; GRIN1/GRIN2A (Homo sapiens) (UniProt Q05586+Q12879); settings: L12-G10, 100 uM
Description: Inhibition of dexamethasone-induced human NR1-1a/NR2A receptor-mediated excitotoxicity in (S)-glutamate/glycine-stimulated mouse L12-G10 cells assessed as LDH release at 100 uM after 30 mins

Chain of Cholinesterase (P81908 whole entry): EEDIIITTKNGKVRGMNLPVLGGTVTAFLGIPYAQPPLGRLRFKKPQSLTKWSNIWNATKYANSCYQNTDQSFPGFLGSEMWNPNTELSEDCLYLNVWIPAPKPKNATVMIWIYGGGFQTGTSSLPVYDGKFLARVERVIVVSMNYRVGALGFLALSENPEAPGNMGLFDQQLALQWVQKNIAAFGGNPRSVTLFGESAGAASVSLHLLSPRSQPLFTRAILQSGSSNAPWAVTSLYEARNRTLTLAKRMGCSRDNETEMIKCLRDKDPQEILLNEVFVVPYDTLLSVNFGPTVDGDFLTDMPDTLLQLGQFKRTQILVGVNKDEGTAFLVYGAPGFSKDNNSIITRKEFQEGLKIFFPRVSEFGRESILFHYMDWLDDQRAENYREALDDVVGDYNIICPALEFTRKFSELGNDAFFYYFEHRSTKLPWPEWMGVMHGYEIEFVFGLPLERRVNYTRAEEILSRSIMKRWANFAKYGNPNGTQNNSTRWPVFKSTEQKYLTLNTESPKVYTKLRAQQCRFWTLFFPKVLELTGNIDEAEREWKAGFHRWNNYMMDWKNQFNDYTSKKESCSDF
Chain of Acetylcholinesterase (O42275 whole entry): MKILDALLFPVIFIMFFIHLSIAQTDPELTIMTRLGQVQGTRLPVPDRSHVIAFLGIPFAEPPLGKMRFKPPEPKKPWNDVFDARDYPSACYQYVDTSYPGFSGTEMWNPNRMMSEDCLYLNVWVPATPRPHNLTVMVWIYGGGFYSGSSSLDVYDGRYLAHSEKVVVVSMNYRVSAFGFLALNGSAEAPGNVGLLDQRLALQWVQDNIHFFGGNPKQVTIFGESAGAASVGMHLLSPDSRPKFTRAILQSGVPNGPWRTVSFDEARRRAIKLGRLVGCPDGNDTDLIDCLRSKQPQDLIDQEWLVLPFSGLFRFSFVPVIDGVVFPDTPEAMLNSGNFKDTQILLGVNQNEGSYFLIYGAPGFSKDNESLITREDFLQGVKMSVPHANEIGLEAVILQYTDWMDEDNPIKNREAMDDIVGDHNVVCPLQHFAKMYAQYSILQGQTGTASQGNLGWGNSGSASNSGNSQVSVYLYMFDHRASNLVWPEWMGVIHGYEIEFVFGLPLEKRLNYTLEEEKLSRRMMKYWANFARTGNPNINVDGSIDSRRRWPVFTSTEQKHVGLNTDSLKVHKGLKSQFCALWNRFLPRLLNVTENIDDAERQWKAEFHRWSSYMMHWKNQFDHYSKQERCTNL
Chain of Glutamate NMDA receptor; GRIN1/GRIN2B (Q13224 whole entry, other chains not shown): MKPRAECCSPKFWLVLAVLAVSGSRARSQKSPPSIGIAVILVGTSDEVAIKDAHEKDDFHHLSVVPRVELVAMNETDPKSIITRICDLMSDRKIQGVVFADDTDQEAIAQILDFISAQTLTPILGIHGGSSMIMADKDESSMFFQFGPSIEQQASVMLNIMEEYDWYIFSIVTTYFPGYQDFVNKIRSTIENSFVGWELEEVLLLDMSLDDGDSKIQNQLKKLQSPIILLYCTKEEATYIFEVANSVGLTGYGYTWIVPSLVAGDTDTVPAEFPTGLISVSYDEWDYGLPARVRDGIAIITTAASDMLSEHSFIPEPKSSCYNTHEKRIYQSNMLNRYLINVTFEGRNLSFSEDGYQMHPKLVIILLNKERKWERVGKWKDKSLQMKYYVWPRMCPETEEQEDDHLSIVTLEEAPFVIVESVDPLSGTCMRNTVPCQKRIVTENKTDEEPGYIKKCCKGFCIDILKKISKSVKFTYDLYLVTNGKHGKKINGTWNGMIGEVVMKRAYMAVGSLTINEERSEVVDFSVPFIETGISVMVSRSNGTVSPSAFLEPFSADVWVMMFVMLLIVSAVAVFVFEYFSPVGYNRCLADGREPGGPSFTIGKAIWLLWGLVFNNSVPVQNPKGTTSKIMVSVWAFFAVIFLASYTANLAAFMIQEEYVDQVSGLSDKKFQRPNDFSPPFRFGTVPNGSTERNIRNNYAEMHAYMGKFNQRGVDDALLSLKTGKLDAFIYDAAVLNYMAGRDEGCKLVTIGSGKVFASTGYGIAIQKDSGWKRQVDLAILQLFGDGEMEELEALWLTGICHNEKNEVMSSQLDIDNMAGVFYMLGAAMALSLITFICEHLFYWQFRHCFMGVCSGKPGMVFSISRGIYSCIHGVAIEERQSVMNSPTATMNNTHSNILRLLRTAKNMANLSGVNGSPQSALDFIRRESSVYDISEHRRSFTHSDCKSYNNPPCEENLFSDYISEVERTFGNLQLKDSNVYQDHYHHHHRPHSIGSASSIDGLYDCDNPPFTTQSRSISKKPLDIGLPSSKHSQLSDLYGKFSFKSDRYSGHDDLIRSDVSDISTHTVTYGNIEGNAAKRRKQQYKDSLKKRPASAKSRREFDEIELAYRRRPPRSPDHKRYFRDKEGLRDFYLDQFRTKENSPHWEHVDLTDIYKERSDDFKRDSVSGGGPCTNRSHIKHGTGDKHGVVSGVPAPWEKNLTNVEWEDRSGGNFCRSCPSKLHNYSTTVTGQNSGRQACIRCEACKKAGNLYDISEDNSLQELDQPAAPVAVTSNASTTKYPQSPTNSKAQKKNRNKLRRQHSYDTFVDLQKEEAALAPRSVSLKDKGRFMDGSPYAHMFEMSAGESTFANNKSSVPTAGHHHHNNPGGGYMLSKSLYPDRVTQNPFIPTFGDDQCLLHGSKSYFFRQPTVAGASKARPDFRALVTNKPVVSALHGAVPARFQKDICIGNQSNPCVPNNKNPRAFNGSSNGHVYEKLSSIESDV

Row | SMILES | IC50 (Acetylcholinesterase) | CC50 [1] | IC50 (Cholinesterase) | Activity [2] | Ki [3] | inhibition [4]
1 | C[n+]1ccc2c3ccccc3n(CCCCCCCCCCCCn3c4ccccc4c4cc[n+](C)cc43)c2c1.[I-].[I-] | 1.2 nM | 33800 nM | 4 nM | 52.9% | – | –
2 | C[C@]12N[C@H](Cc3ccccc31)c1ccccc12 [DIZOCILPINE] | – | > 100000 nM | – | 100.3% | – | –
3 | [Br-].[Br-].c1ccc2c(c1)[nH]c1c[n+](CCCC[n+]3ccc4c(c3)[nH]c3ccccc34)ccc12 | 278 nM | > 100000 nM | 78 nM | 78.2% | – | –
4 | [Br-].[Br-].c1ccc2c(c1)[nH]c1c[n+](CCCCCC[n+]3ccc4c(c3)[nH]c3ccccc34)ccc12 | 248 nM | > 100000 nM | 186 nM | 75% | 20000 nM | –
5 | CC12CC3CC(C)(C1)CC(N)(C3)C2 [MEMANTINE] | > 10000 nM | > 100000 nM | > 10000 nM | 100.4% | – | –
6 | [Br-].[Br-].c1ccc2c(c1)[nH]c1c[n+](Cc3ccc(C[n+]4ccc5c(c4)[nH]c4ccccc45)cc3)ccc12 | 147 nM | > 100000 nM | 439 nM and 473 nM | 83.2% | – | –
7 | [Br-].[Br-].c1ccc2c(c1)[nH]c1c[n+](CCCCCCCCCCCC[n+]3ccc4c(c3)[nH]c3ccccc34)ccc12 | 86 nM | 35100 nM | 22 nM | 38% | – | –
8 | [Br-].[Br-].c1ccc2c(c1)[nH]c1c[n+](CCCCCCCCCC[n+]3ccc4c(c3)[nH]c3ccccc34)ccc12 | 63 nM | > 100000 nM | 49 nM | 67.5% | – | –
9 | Oc1ccc2[nH]c3c[n+](CCCCC[n+]4ccc5c(c4)[nH]c4ccc(O)cc45)ccc3c2c1.[Br-].[Br-] | 4260 nM | > 100000 nM | 1630 nM | 71.8% | – | –
10 | [Br-].[Br-].c1ccc2c(c1)[nH]c1c[n+](CCCCCCC[n+]3ccc4c(c3)[nH]c3ccccc34)ccc12 | 81 nM | > 100000 nM | 65 nM | 80.1% | – | –
11 | C[n+]1ccc2c3ccccc3n(CCCCCn3c4ccccc4c4cc[n+](C)cc43)c2c1 | 280 nM | – | 19 nM | – | – | –
12 | CCC[n+]1ccc2c(c1)[nH]c1ccccc12 | 845 nM | – | 2310 nM | – | – | –
13 | CCn1c2ccccc2c2ccncc21 | > 1000 nM | – | > 10000 nM | – | – | –
14 | [Br-].[Br-].c1ccc2c(c1)[nH]c1c[n+](CC[n+]3ccc4c(c3)[nH]c3ccccc34)ccc12 | 430 nM | > 100000 nM | 319 nM | 76.6% | – | –
15 | COc1ccc2[nH]c3c[n+](CCCCC[n+]4ccc5c(c4)[nH]c4ccc(OC)cc45)ccc3c2c1.[Br-].[Br-] | > 10000 nM | > 100000 nM | 319 nM | 84.1% | – | –
16 | c1ccc2c(c1)c1ccncc1n2CCCCCCCCCn1c2ccccc2c2ccncc21 | – | > 100000 nM | – | 67.7% | – | –
17 | c1ccc2c(c1)c1ccncc1n2CCCCCCCCCCCCn1c2ccccc2c2ccncc21 | > 10000 nM | > 100000 nM | > 10000 nM | 100.2% | – | –

Row | SMILES | IC50 (Acetylcholinesterase) | CC50 [1] | IC50 (Cholinesterase) | Activity [2] | Ki [3] | inhibition [4]
18 | c1ccc2c3c([nH]c2c1)CN(CCCCCN1CCc2c([nH]c4ccccc24)C1)CC3 | > 1000 nM | – | > 1000 nM | – | – | –
19 | [Br-].[Br-].c1ccc2c(c1)[nH]c1c[n+](CCCCCCCC[n+]3ccc4c(c3)[nH]c3ccccc34)ccc12 | 113 nM | 54200 nM | 75 nM | 51.8% | – | –
20 | C[n+]1ccc2c3ccccc3n(CCCCCCCCCn3c4ccccc4c4cc[n+](C)cc43)c2c1.[I-].[I-] | – | > 100000 nM | – | 78.9% | – | –
21 | c1ccc2c(c1)c1ccncc1n2CCCCCn1c2ccccc2c2ccncc21 | > 10000 nM | – | > 1000 nM | – | – | –
22 | c1cc[n+](CCCCCC[n+]2ccccc2)cc1 | > 10000 nM | – | > 10000 nM | – | – | –
23 | c1ccc2c3c([nH]c2c1)CN(CCCCCCCCCCN1CCc2c([nH]c4ccccc24)C1)CC3 | > 1000 nM | – | 2900 nM | – | – | –
24 | C[n+]1ccc2c(c1)[nH]c1ccccc12 | > 10000 nM | – | 540 nM | – | – | –
25 | c1cc[n+](CCCCCC[n+]2ccc3c(c2)[nH]c2ccccc23)cc1 | 564 nM | – | 6330 nM | – | – | –
26 | CNC1(c2ccccc2Cl)CCCCC1=O (centres undefined) [KETAMINE] | > 10000 nM | > 100000 nM | > 10000 nM | 99.8% | – | –
27 | NCCCNCCCCNCCCN | – | – | – | – | – | 108%
28 | [Br-].[Br-].c1ccc2c(c1)[nH]c1c[n+](CCOCCOCCOCC[n+]3ccc4c(c3)[nH]c3ccccc34)ccc12 | 3140 nM | > 100000 nM | 195 nM | 98.6% | – | –
29 | [Br-].[Br-].c1ccc2c(c1)[nH]c1c[n+](CCCCCCCCCCC[n+]3ccc4c(c3)[nH]c3ccccc34)ccc12 | 92 nM | > 100000 nM | 18 nM | 60.3% | – | –
30 | [Br-].[Br-].c1ccc2c(c1)[nH]c1c[n+](CCCCCCCCC[n+]3ccc4c(c3)[nH]c3ccccc34)ccc12 | 125 nM | > 100000 nM | 40 nM | 73.8% | – | –
31 | CCn1c2ccccc2c2cc[n+](C)cc21 | 2570 nM | – | 2020 nM | – | – | –
32 | [Br-].[Br-].c1ccc2c(c1)[nH]c1c[n+](CCCCC[n+]3ccc4c(c3)[nH]c3ccccc34)ccc12 | 595 nM | > 100000 nM | 48.9 nM and 48 nM | 92.4% | – | –
33 | [Br-].[Br-].c1ccc2c(c1)[nH]c1c[n+](CCC[n+]3ccc4c(c3)[nH]c3ccccc34)ccc12 | 7660 nM | > 100000 nM | 652 nM | 82.5% | – | –
